# Assay results taken from patent US20090069276A1, “Treatment, prevention and amelioration of pulmonary disorders associated with chemotherapy or radiotherapy with active vitamin D compounds or mimics thereof” (Novacea, Inc., priority 2005, published 2009).
# Where two headings read alike, the source gives them in different places.
# Legend:
# cancer patients [1] = details: cited from earlier work
# [2] = Solubility study of calcitriol in the formulations (light microscopy); type: physicochemical; details: each formulation of Table 3; prepared at 50° C., cooled to room temperature; highest concentration tested
# Protocol: To further assess the formulations of calcitriol, a solubility study was conducted to evaluate the amount of calcitriol soluble in each formulation. Calcitriol concentrations from 0.1 to 0.6 μg calcitriol/mg fomulation were prepared by heating the formulations to 50° C. followed by addition of the appropriate mass of calcitriol. The formulations were then allowed to cool to room temperature and the presence of undissolved calcitriol was determined by a light microscope with and without polarizing light. For each formulation, calcitriol was soluble at the highest concentration tested, 0.6 μg calcitriol/mg formulation.
# cancer patients [3] = details: cited from earlier work; for Patients who developed pneumonia: refractory chronic lymphocytic leukemia
# patients = details: administered doses; Glover 1988; cited from earlier work
# [4] = system: patients with androgen independent prostate cancer; details: Taxotere 36 mg/m^2 weekly, calcitriol 45 μg weekly by HDPA
# Description: Two hundred fifty patients with androgen independent prostate cancer were enrolled in a randomized placebo controlled trial at 48 centers in the United States and Canada. All patients in the study received chemotherapy treatment with weekly Taxotere®, a drug in the taxoid class of chemotherapeutic agents. […] Oral dexamethasone was also given along with the Taxotere® to minimize certain side effects (allergic reactions and fluid retention) associated with Taxotere®.
# In addition to Taxotere® and dexamethasone, half of the patients were randomly treated with calcitriol and the other half received a placebo. Calcitriol was administered as three capsules of 15 μg each once a week on the day prior to chemotherapy. […] The same Taxotere® dose of 36 mg/m^2 body surface area was administered to the patients receiving Taxotere® and placebo or Taxotere® in combination with calcitriol. Drugs were administered for three weeks out of a four week cycle, with calcitriol being administered on days 1, 7, and 21 and Taxotere® being administered on days 2, 8, and 22.
# [5] = in vivo; cited from earlier work
# [6] = acute promyelocytic leukemia, Tallman 1997
compound,measurement,setting,value
CC1=C(/C=C/C(C)=C/C=C/C(C)=C/C(=O)O)C(C)(C)CCC1 [all-trans-retinoic acid],Patients who developed grade III or IV pulmonary toxicity (total),cancer patients [1]; [6],Twenty
same,Patients with lethal pulmonary toxicity,cancer patients [1]; [6],2%
same,Patients with life-threatening pulmonary toxicity,cancer patients [1]; [6],11%
same,Patients with severe pulmonary toxicity,cancer patients [1]; [6],7%
"C=C1/C(=C\C=C2/CCC[C@]3(C)[C@@H]([C@H](C)CCCC(C)(C)O)CC[C@@H]23)C[C@@H](O)C[C@@H]1O [calcitriol, 1α,25-hydroxyvitamin D3]",Calcitriol soluble in formulation,[2],≥ 0.6 μg calcitriol/mg formulation
Nc1ccn([C@@H]2O[C@H](CO)[C@@H](O)C2(F)F)c(=O)n1 [gemcitabine],Patients with grade III-IV respiratory toxicity,"cancer patients [1]; out of 40 bladder cancer patients, 1200 mg/m^2 IV weekly times three on a 4-week cycle, Stadler 1997",2 patients
Nc1nc(F)nc2c1ncn2[C@@H]1O[C@H](COP(=O)(O)O)[C@@H](O)[C@@H]1O [fludarabine phosphate],Patients who developed pneumonia,cancer patients [3]; 15-25 mg/m^2 daily for five days every 28 days,22%
same,Patients who developed pneumonia,cancer patients [3]; 22-40 mg/m^2 daily for five days every 28 days,16%
"NCCCNCCSP(=O)(O)O [WR 2721, S-2-(3-aminopropylamino)ethylphosphorothioic acid]",Patients with emesis,patients,48%
same,Patients with hypotension,patients,7%
CC(=O)O[C@@]12CO[C@@H]1C[C@H](O)[C@@]1(C)C(=O)[C@H](O)C3=C(C)[C@@H](OC(=O)[C@H](O)[C@@H](NC(=O)OC(C)(C)C)c4ccccc4)C[C@@](O)([C@@H](OC(=O)c4ccccc4)[C@H]21)C3(C)C [Taxotere®],Patients hospitalized for dyspnea,[4],four
same,Patients who developed ARDS,[4],One
"gemtuzumab: cancer drug given to acute myelogenous patients; product Mylotarg™, Wyeth-Ayerst",Patients with grade III or IV pneumonia,"cancer patients [3]; acute myelogenous patients, 9 mg/m^2 IV over 2 hours, two doses 14 days apart, Mylotarg package insert",7%
C=C1/C(=C\C=C2/CCC[C@]3(C)C([C@H](C)CC#CC(C)(C)O)=CC[C@@H]23)C[C@@H](O)C[C@@H]1O [Ro23-7553],"Hypercalcemic effect, in words",[5],reduced hypercalcemic effect
